Each structure is given as a SMILES string. In brackets after ≈: the same amount, converted by molar mass.

The term MIC denotes the least concentration at which growth counts as inhibited. Lower therefore signals inhibition by little substance.

Data set [1] can be described thus: Acute toxicity in CD-1 nu/nu mice. The data set is classed as in vivo. As to conditions: CD-1 nu/nu, mouse, in vivo, 6% Tween/4.5% Glycocholate/5% EtOH formulation. The procedure:
(§1) Toxicity and therapeutic efficacy of polycyclic aromatic compounds can be determined by standard pharmaceutical procedures in cell cultures or experimental animals. Therapeutic efficacy is determined in animal models as described above and in the examples herein. Toxicity studies are done to determine the lethal dose for 10% of tested animals (LD10). Animals are treated at the maximum tolerated dose (MTD): the highest dose not producing mortality or greater than 20% body weight loss. The effective dose (ED) is related to the MTD in a given tumor model to determine the therapeutic index of the compound.
(§2) In vivo toxicity: With CD1 mice, the maximum tolerated dose (MTD) for a single-dose via i.v. or i.p. routes in 1% SDS formulation was ≧5 mg/kg. The acute toxicity in CD-1 nu/nlu mice of Compound 1 was also determined in 6% Tween/4.5% Glycocholate/5% EtOH formulation.

In data set [2] the test system is CD-1 nu/nlu mice. Briefly: Acute toxicity in CD-1 nu/nu mice. The settings on record: i.v.; 6% Tween/4.5% Glycocholate/5% EtOH formulation. Type of data set: in vivo. The procedure:
as §1, §2

Data set [3] deals with Enterococcus faecalis VRE-2 (ATCC™ 51299). The data set is described as follows: Antibacterial activity, MIC (NCCLS M7-A5). As to conditions: BHI+ medium, 35° C., 16 to 20 hours. Type of data set: cell-based.
The test system of data set [4] is Saccharomyces cerevisiae FHCRC-50514. The data set is described as follows: Antifungal activity, MIC (NCCLS M27-A). The data set is classed as cell-based. As to conditions: FHCRC50514, after 24 hours, YPD medium. The procedure:
(§3) Testing of antifungal activity was performed according to NCCLS method (NCCLS. Reference Method for Broth Dilution Antifungal Susceptibility Testing of Yeasts; Approved Standard. NCCLS document M27-A (ISBN 1-56238-328-0). NCCLS, 940 West Valley Road, Suite 1400, Wayne, Pa. 19087-1898 USA; www.nccls.org.). Compound 1 was prepared as 100× stock solutions in DMSO, with concentrations ranging from 3.2 mg/mL to 0.003 mg/mL (a two-fold dilution series over 11 points). An aliquot of each 100× stock solution was diluted 50-fold in test medium described below to give a set of eleven (11) 2× solutions. 50 μL of each of the eleven 2× solutions was aliquoted into the corresponding well of a 12-well row, with the final well reserved for medium alone control. Inoculum density for each indicator strain was adjusted to OD600=0.1 in 5 mL 0.85% saline, then further diluted 1/1000 in YPD medium. 50 μL of the final dilution (in test medium) of each indicator strain was added to each well of a 12-well row. This brings the final dilution of the test article or control compound in solution to 1×. The final inoculum was approximately 5×10^4 CFU/ml.
(§4) Bacterial strains Streptococcus pneumoniae LSPQ 3412 and LSPQ 3349 were obtained from the “Laboratoire de Sante Publique du Quebec”. Saccharomyces cerevisiae FHCRC-50014 and FHCRC-50514 were obtained from the “Fred Hutchison Cancer Research Center”.

Data set [5] has as its system Saccharomyces cerevisiae FHCRC-50014. The data set is described as follows: Antifungal activity, MIC (NCCLS M27-A). Type of data set: cell-based. As to conditions: FHCRC50014, after 24 hours, YPD medium. The procedure:
as §3, §4

Data set [6] relates to CRL nu/nu mice. Briefly: Repeated dose toxicity in CRL nu/nu mice. The data set is classed as in vivo. The procedure: Repeated dose toxicity was evaluated in CRL nu/nu mice (6% Tween/4.5% Glycocholate/5% EtOH formulation). The MTTD (maximum total tolerated dose) was 25 mg/kg with a qd×4 dosage regimen.
Data set [7] deals with Staphylococcus aureus MRS3 (ATCC™ 700699). Briefly: Antibacterial activity, MIC (NCCLS M7-A5). Type of data set: cell-based. The settings on record: MH medium, 35° C., 16 to 20 hours.

As for `CCC(C)c1cc2c(=O)c3ccc4c(OC)c5c(=O)c6c(O)ccc(O)c6c(=O)c5c(O)c4c3c(=O)c2c(=O)n1CC(=O)N1CC(C(=O)O)NC(=O)C1C` (stereo not drawn) [Compound 1], the MTD in data set [1] (ip) is at least 50 mg/kg; in data set [1] (iv), 25 mg/kg. The Injection site observation entry in data set [2] is reported as “necrosis at the injection site was observed”. For the same compound, the MIC came out at 0.125 µg/mL (≈ 0.169 µM) in data set [3], 8 µg/mL (≈ 10.8 µM) in data set [4], 8 µg/mL (≈ 10.8 µM) in data set [5] and 0.016 µg/mL (≈ 0.0217 µM) in data set [7]. Moreover, the “MTTD (maximum total tolerated dose)” value in data set [6] (qd×4 dosage regimen, 6% Tween/4.5% Glycocholate/5% EtOH formulation) is given as 25 mg/kg. In addition, the “Organ findings following repeated dosage” value in data set [6] (spleen and liver, repeated dosage) is “Adaptive hypertrophy and hyperplasia were observed in spleen and liver”.

These data come from patent US20060106028A1, “Polycyclic aromatics and derivatives thereof and processes for their preparation” (priority 2004, published 2006).
